Source: the supplement of paper PMC10307832

Assays:
Assay in all cases: relative viability (nuclei count vs DMSO), 5 days (fraction); higher = more cells survive
[1] = compound: C=CCc1cccc(/C=N/NC(=O)CN2CCN(Cc3ccccc3)CC2)c1O [PAC-1] + Cc1cc(Nc2cc(N3CCN(C)CC3)nc(Sc3ccc(NC(=O)C4CC4)cc3)n2)n[nH]1 [Tozasertib] (partner 0.1 µM)
Procedure, shortened: (§1)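 Dosing by pin tool came one day after lung cancer cell lines were seeded in 1536-well plates, using either one drug or a fixed anchor-drug dose plus five library-drug doses (not always all listed) in √10 steps. After 5 days, nuclei were counted on 4× images. Relative viability is treated-well nuclei count divided by vehicle-well nuclei count, and values are medians of duplicate plates.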

[2] = compound: C=CC(=O)N1CCC[C@@H](n2nc(-c3ccc(Oc4ccccc4)cc3)c3c(N)ncnc32)C1 [Ibrutinib] + N=C(N)NC(=N)NCCc1ccccc1 [Phenformin] (partner 250 µM)
Procedure, shortened: as §1

[3] = compound: C=CC(=O)N1CCC[C@@H](n2nc(-c3ccc(Oc4ccccc4)cc3)c3c(N)ncnc32)C1 [Ibrutinib] + COc1cc2c(Oc3ccc(NC(=O)C4(C(=O)Nc5ccc(F)cc5)CC4)cc3F)ccnc2cc1OCCCN1CCOCC1 [Foretinib] (partner 0.25 µM)
Procedure, shortened: as §1

[4] = compound: C=CC(=O)Nc1cc(-n2c(=O)ccc3cnc4ccc(-c5ccc(NS(C)(=O)=O)cc5)cc4c32)ccc1C [BMX-IN-1] + N=C(N)NC(=N)NCCc1ccccc1 [Phenformin] (partner 250 µM)
Procedure, shortened: as §1

| Cell Line | relative viability ([1]; first compound 0.02 µM) | relative viability ([1]; first compound 0.06325 µM) | relative viability ([1]; first compound 0.2 µM) | relative viability ([1]; first compound 2 µM) | relative viability ([2]; first compound 0.005 µM) | relative viability ([2]; first compound 0.01581 µM) | relative viability ([2]; first compound 0.05 µM) | relative viability ([2]; first compound 0.1581 µM) | relative viability ([2]; first compound 0.5 µM) | relative viability ([3]; first compound 0.005 µM) | relative viability ([3]; first compound 0.01581 µM) | relative viability ([3]; first compound 0.05 µM) | relative viability ([3]; first compound 0.1581 µM) | relative viability ([3]; first compound 0.5 µM) | relative viability ([4]; first compound 0.02 µM) | relative viability ([4]; first compound 0.2 µM) | relative viability ([4]; first compound 0.6325 µM) | relative viability ([4]; first compound 2 µM) |
| --- | --- | --- | --- | --- | --- | --- | --- | --- | --- | --- | --- | --- | --- | --- | --- | --- | --- | --- |
| NCI-H1975 | 0.76 | 0.824 | 0.748 | 0.729 | 0.452 | 0.372 | 0.379 | 0.416 | 0.215 | 0.973 | 0.891 | 0.819 | 0.96 | 0.544 | 0.404 | 0.428 | 0.453 | 0.416 |
| NCI-H1993 | 0.635 | 0.541 | 0.469 | 0.548 | 0.487 | 0.575 | 0.534 | 0.509 | 0.624 | 0.74 | 0.72 | 0.759 | 0.783 | 0.62 | 0.438 | 0.525 | 0.453 | 0.492 |
| NCI-H2009 | 0.816 | 0.715 | 0.698 | 0.696 | 0.558 | 0.476 | 0.518 | 0.476 | 0.499 | 1.31 | 1.21 | 1.14 | 1.19 | 1.26 | 0.47 | 0.549 | 0.531 | 0.485 |
| NCI-H2023 | 0.404 | 0.355 | 0.382 | 0.347 | 0.376 | 0.392 | 0.402 | 0.45 | 0.357 | 0.747 | 0.721 | 0.562 | 0.975 | 0.459 | 0.466 | 0.522 | 0.418 | 0.413 |
| NCI-H2085 | 0.787 | 0.81 | 0.797 | 0.796 | 0.584 | 0.691 | 0.616 | 0.589 | 0.495 | 0.916 | 0.628 | 0.941 | 1.1 | 0.625 | 0.664 | 0.68 | 0.81 | 0.707 |
| NCI-H2087 | 0.197 | 0.252 | 0.281 | 0.259 | 0.494 | 0.46 | 0.493 | – | 0.427 | 1.18 | 1.21 | 1.09 | – | 1.24 | 0.462 | 0.572 | 0.508 | 0.443 |
| NCI-H2126 | 0.919 | 0.829 | 0.82 | 0.821 | 0.485 | 0.474 | 0.495 | 0.551 | 0.52 | – | 1.03 | 1.24 | 1.25 | 1.02 | 0.517 | 0.559 | 0.581 | 0.526 |
| NCI-H2170 | 0.693 | 0.776 | 0.805 | 0.712 | 0.431 | 0.42 | 0.395 | 0.39 | 0.36 | 1.06 | 0.858 | 0.951 | 1.01 | 0.377 | 0.375 | 0.4 | 0.415 | 0.416 |
| NCI-H2228 | 0.228 | 0.258 | 0.263 | 0.234 | 0.378 | – | 0.346 | 0.263 | 0.285 | 0.845 | – | 0.915 | 0.892 | 0.609 | 0.339 | 0.388 | 0.458 | 0.37 |
| NCI-H2342 | 0.521 | 0.564 | 0.525 | 0.61 | 0.472 | 0.56 | 0.57 | 0.455 | 0.452 | 0.9 | 1 | 0.812 | 1.12 | 0.801 | 0.651 | 0.7 | 0.55 | 0.617 |
| NCI-H2347 | 0.534 | 0.572 | 0.576 | 0.511 | – | 0.447 | 0.332 | 0.294 | 0.239 | – | 0.811 | 0.8 | – | 0.725 | 0.314 | 0.368 | 0.38 | 0.357 |
| NCI-H2405 | 0.688 | 0.737 | 0.74 | 0.786 | 0.383 | 0.384 | 0.387 | 0.264 | 0.369 | 1.11 | 1.07 | 1.08 | 1.06 | – | 0.389 | 0.568 | 0.391 | 0.429 |
| NCI-H3122 | 0.421 | 0.425 | 0.394 | 0.344 | 0.363 | 0.359 | 0.414 | 0.358 | 0.406 | 1.02 | 0.984 | 1.04 | 0.938 | 1.04 | 0.377 | 0.633 | 0.41 | 0.38 |
| PC-3 [JPC-3] | 0.883 | 0.859 | 0.842 | 0.857 | 0.47 | 0.452 | 0.467 | 0.473 | 0.391 | 1.05 | 0.936 | 0.891 | 1.09 | 0.547 | 0.459 | 0.488 | 0.483 | 0.491 |
| PC-14 | 0.572 | 0.635 | 0.63 | 0.626 | 0.589 | 0.512 | 0.429 | 0.357 | 0.174 | 1.1 | 0.907 | – | 1.02 | 0.985 | 0.575 | 0.535 | 0.809 | 0.583 |
| RERF-LC-KJ | 0.467 | 0.483 | 0.45 | 0.511 | 0.394 | 0.389 | 0.379 | 0.407 | 0.356 | 0.97 | 0.707 | 0.841 | 0.895 | 0.845 | 0.439 | 0.408 | 0.42 | 0.416 |
| SK-LU-1 | 0.314 | 0.332 | 0.341 | 0.294 | 0.433 | 0.542 | 0.585 | 0.545 | 0.485 | 0.857 | 0.804 | 0.814 | 0.926 | 0.719 | 0.513 | 0.636 | 0.626 | 0.524 |
| SW 900 | 0.581 | 0.61 | 0.473 | 0.465 | – | – | 0.588 | 0.669 | 0.618 | – | – | 0.861 | 0.683 | 0.836 | 0.545 | 0.82 | 0.614 | 0.543 |
